# Reference: PMC2683593 (The Journal of neuroscience : the official journal of the …, 2009)
# Several values for one entry are separate records, joined by “and”; a condition that tells them apart may be missing. Equal values may be shown once. Entries after “also recorded” stand apart in the source; their conditions may differ. Read-outs that look alike come from different tables or passages of the source.
# What was measured:
# Format in all cases: cell-based, Swiss-Webster mice
# cerebrocortical neurons [1] = test system: cerebrocortical neurons
# cerebrocortical neurons [2] = test: Intracellular Ca2+ monitoring
# cerebrocortical neurons [3] = test system: cerebrocortical neurons; remark: listed apart in the source
# cerebrocortical neurons [4] = test: Viable neuron count by fluorescein diacetate staining; conditions: read-out: EC50 for decreasing the live neuron count, DIV-9, 95% CI 38.4–176 μM
# NMDA receptors = test: Single-channel cell-attached patch recording of NMDA receptor currents
# cerebrocortical neurons [5] = test: Intracellular sodium concentration
# Src kinase = test system: Src kinase
# cerebrocortical neurons [6] = test: Membrane potential assay
# [7] = 15 min preincubation with 10 μM PP2 or PP3, after PbTx-2
# [8] = 15 min preincubation with 10 μM PP2 or PP3, before PbTx-2
compound,measurement,setting,value
C[C@]12N[C@H](Cc3ccccc31)c1ccccc12 [MK-801],effect on PbTx-2 enhanced neurite outgrowth,cerebrocortical neurons [1],abrogated
same,"total neurite length, inhibitor plus 30 nM PbTx-2",cerebrocortical neurons [1],83.1± 5.26 μm
CN[C@H](CC(=O)O)C(=O)O [NMDA],effect of NMDA alone on [Ca2+]i,"cerebrocortical neurons [2]; 3 μM NMDA, DIV-2 neurons",did not affect [Ca^2+]i
same,EC50,"cerebrocortical neurons [2]; read-out: EC50 for NMDA-induced Ca2+ influx, DIV-4 neurons, absence of PbTx-2",19.2 µM
same,EC50,"cerebrocortical neurons [2]; read-out: EC50 for NMDA-induced Ca2+ influx, DIV-9 neurons, absence of PbTx-2",11.1 µM
same,sensitivity to NMDA-induced LDH efflux,"cerebrocortical neurons [3]; 2, 4 and 6 DIV cultures, after 2 h exposure or at 24 h post-exposure",little sensitivity
same,maximal LDH efflux,"cerebrocortical neurons [3]; DIV-9 cultures, 24 h after initiation of 2 h NMDA exposure",247 ± 10.5 % of control
same,EC50,"cerebrocortical neurons [3]; read-out: EC50 for LDH efflux, DIV-9 neurons, 95% CI 27.9–101 μM",53.1 µM
same,EC50,cerebrocortical neurons [4],82.2 µM
"Nc1ncnc2c1cnn2-c1ccccc1 [PP3, 4-Amino-7-phenylpyrazol [3,4-d] pyrimidine]","mean open time, inhibitor plus PbTx-2",NMDA receptors; [7],3.87 ± 0.15 ms
same,"open probability (Po), inhibitor plus PbTx-2",NMDA receptors; [7],0.013 ± 0.003
same,"mean open time, inhibitor alone (control)",NMDA receptors; [8],1.39 ± 0.09 ms
same,"open probability (Po), inhibitor alone (control)",NMDA receptors; [8],0.0032 ± 0.0005
"C=C(C=O)C[C@@H]1C[C@H](O)[C@]2(C)O[C@@H]3C[C@@H]4O[C@@H]5C[C@]6(C)O[C@]7(C)CC[C@@H]8O[C@@H]9C[C@]%10(C)O[C@@H]%11C(C)=CC(=O)O[C@H]%11C[C@H]%10O[C@H]9C[C@@H](C)[C@H]8O[C@H]7C[C@H]6O[C@H]5C/C=C\[C@H]4O[C@H]3C[C@H]2O1 [PbTx-2, Brevetoxin-2]",Ca2+ influx pathway stimulated,cerebrocortical neurons [2],primarily through NMDA receptors; also recorded: through both L-type calcium channels and NMDA receptors
same,effect of PbTx-2 alone on [Ca2+]i,cerebrocortical neurons [2],did not alter [Ca^2+]i
same,effect of PbTx-2 alone on fluo-3 fluorescence,cerebrocortical neurons [2],did not increase fluo-3 fluorescence
same,effect on NMDA-induced Ca2+ influx,cerebrocortical neurons [2],robust potentiation
same,EC50,cerebrocortical neurons [2]; read-out: EC50 for PbTx-2-stimulated increase in [Ca2+]i,0.244 µM
same,[Na+]i increment over basal,cerebrocortical neurons [5],8.8 ± 1.8 mM
same,concentration-response profile of [Na+]i,cerebrocortical neurons [5],hormetic profile
same,maximum [Na+]i,cerebrocortical neurons [5],16.9 ± 1.5 mM
same,maximum elevation of [Na+]i (concentration-response),cerebrocortical neurons [5],36.6 ± 0.9 mM
same,EC50,cerebrocortical neurons [5]; read-out: EC50 for PbTx-2-induced elevation of [Na+]i,0.0433 µM
same,phosphorylation of tyrosine 416 of Src,Src kinase,significant increase
same,total neurite length,cerebrocortical neurons [1],265.8 ± 20.86 μm and 166.5 ± 17.9 μm
same,amplitude of single channel currents,NMDA receptors,6.8 ± 0.4 pA
same,effect on membrane potential from single channel NMDA receptor currents,NMDA receptors,did not affect
same,open probability (Po) of NMDA receptors,NMDA receptors,0.031 ± 0.008
same,"open time histogram, first time constant (area)",NMDA receptors,1.6 (65%)
same,"open time histogram, second time constant (area)",NMDA receptors,4.1 (35%)
same,"shut time histogram, first time constant (area)",NMDA receptors,0.63 (45%)
same,"shut time histogram, fourth time constant (area)",NMDA receptors,1361 (11%)
same,"shut time histogram, second time constant (area)",NMDA receptors,10.0 (16%)
same,"shut time histogram, third time constant (area)",NMDA receptors,180 (28%)
same,membrane potential after PbTx-2,cerebrocortical neurons [6],29.3 ± 0.02 mV
same,membrane potential change (depolarization),cerebrocortical neurons [6],0.2 ± 0.02 mV
same,EC50,cerebrocortical neurons [6]; read-out: EC50 for increment in FMP blue fluorescence (membrane potential),0.0967 µM
"O=C(O)c1ccc2c3c1cccc3c(=O)n1c3ccccc3nc21 [STO-609, 1,8-naphthoylene benzimidazole-3-carboxylic acid]",effect on PbTx-2 enhanced neurite outgrowth,cerebrocortical neurons [1],completely blocked
"NC1=N[C@H](O)[C@H]2[C@H]3O[C@]4(O)O[C@@H]([C@@H](O)[C@@]2(N1)[C@@H]4O)[C@]3(O)CO [TTX, tetrodotoxin]",effect on PbTx-2 enhanced neurite outgrowth,cerebrocortical neurons [1],completely blocked
same,"total neurite length, inhibitor alone",cerebrocortical neurons [1],185 ± 13.2 μm
same,"total neurite length, inhibitor plus 30 nM PbTx-2",cerebrocortical neurons [1],190.2 ± 10.7 μm
